The text below walks through data of patent US20030186943A1, “Substituted gamma-phenyl-delta-lactams and uses related thereto” (Inflazyme Pharmaceuticals Ltd., priority 1998, published 2003).

SMILES strings stand for the structures.

The subject of assay [1] is IL-10 production in concanavalin A stimulated primary human CD4+ T-cells. The assay can be described thus: IL-10 production (Th2 profile) in concanavalin A stimulated primary human CD4+ T-cells. The assay is classed as cell-based. The note with it: T-cell, 10 μg/mL Concanavalin A, 48 hours, X marks this range, read-out: IL-10 IC50 RANGE (μM) 0.02-0.2. An excerpt: (§1) The assay on the primary human T-cells involves their activation by concanavalin A (conA); (Sigma, Catalogue No. C 5275), followed by ELISA detection for cytokines for either profile. In the case of Th1-profiles, IL-2 and INF-γ are used as benchmarks while IL-10 is the indicator for a Th2-profile. Biologically, these indicators are useful in that IL-2 is the major T-cell mitogen while IL-10 represents a powerful yet selective immunosuppressive agent.
(§2) Approximately 60 cc of whole human blood was collected into ACD anti-coagulant vacutainer tubes. 15 mL Ficoll Paque 1077 was aliquoted into 6 sterile 50 mL conical tubes. 10 mL of blood was slowly layered on top of the Ficoll Paque by holding the tube upright and resting the pipette tip at the inside edge of the tube and allowing the blood to slowly run down the side of the tube. Tubes were spun at 1700 rpm for 30 minutes at room temperature. The plasma layer above the leukocyte band was aspirated off and a pasteur pipette was used to lift off the leukocyte band and transfer it to a sterile 50 mL conical tube. Cells from each leukocyte gradiant tube were transferred to a separate 50 mL conical tube. Sterile PBS pH 7.4 was added to each 50 mL conical tube containing cells from leukocyte band to a volume of 50 mL. Tubes were spun at 1100 rpm for 10 minutes. Supernatant was aspirated off and the cells were resuspended in 50 mL PBS pH 7.4. Tubes were re-centrifuged at 1100 rpm for 10 minutes. Supernatant was aspirated off and the cells were resuspended in appropriate medium at a density of 5×10^7 cells/mL or 2×10^6 cells/mL.
(§3) CD 4+T-cell Preparation: Cells from Leukocyte preparation were resuspended in sterile PBS pH 7.4 supplemented with 2-6% Fetal Bovine Serum (FBS) at a density of 5×10^7 cells/mL. Cells were then ready for isolation.
(§4) 100 μL of antibody cocktail (Stem Cell Technologies, Catalogue No. 14062) was added for each mL of cells and mixed well. Cells+Ab cocktail was incubated on ice for 30 minutes. After 30 minute incubation, 60 μL of magnetic colloid was added for each mL of cells, and mixed well. Cells+Ab cocktail+magnetic colloid were incubated on ice for 30 minutes. After a final 30 minute incubation cells were ready for magnetic cell separation.
(§5) Sample was loaded into the top of a column. The stopcock was turned to allow the flow of media down through the column, and the media was collected into a collection tube. PBS supplemented with 2-6% FBS was added to the column until three column volumes had been collected (not including the volume of the start sample). Cells were washed, counted, and resuspended in RPMI 1640 with 10% FBS+2 mM L-glutamine at a density of 1×10^6 cells/mL.
(§6) CD4+ T-cells were isolated as described above. Cells were suspended in RPMI 1640 media (Stem Cell Technologies Inc.; Catalogue No. 36750) with 10% FBS+2 mM L-glutamine at a density of 1×10^6 cells/mL. Cells were maintained on ice as test compounds were prepared. Test compounds were prepared in a sterile 96-well assay plate at 50×the final desired test concentration, all wells contained an equal amount of dimethylsulfoxide vehicle. 500 μL of CD4^+ T-cells were added to each well of 24-well assay plate. 10 μL of each test compound working solution was added to the appropriate wells; two wells were left as stimulated and non-stimulated controls. 10 μL of concanavalin A (50×the final concentration) at 10 μg/mL was added to each well with the exception of the non-stimulated control wells. Cells were incubated at 37° C. for 48 hours. Conditioned media is then assessed by ELISA for the quantity of IL-2, […], TNFα and IL-10 present.
(§7) Tables 5A, 5B and 5C represent a synopsis of data across individuals with respects to the potency of compounds of the invention in their ability to inhibit cytokines that are likely to promote or depress a Th1 or Th2 response. […]

For assay [2], the system named is IFN-gamma production in concanavalin A stimulated primary human CD4+ T-cells. Kind of assay: IFN-gamma production (Th1 profile) in concanavalin A stimulated primary human CD4+ T-cells. The assay is classed as cell-based. The note with it: T-cell, 10 μg/mL Concanavalin A, 48 hours, X marks this range, read-out: INF-GAMMA IC50 RANGE (μM) 0.2-2.0.
Text: as §1, §2, §3, §4, §5, §6, §7

The test system of assay [3] is K562 chronic myelogenous leukemia cells. The assay can be described thus: Anti-proliferative activity in K562 cells (3H-thymidine uptake). It counts as cell-based, human. On the procedure: 90 μL K562 cells (human chronic myelogenous leukemia cells) were seeded into sterile 96-well assay plates at a density of 1×10^5 cells/mL in RPMI 1640 supplemented with 10% FBS/2 mM L-glutamine. Samples to be tested were prepared in a sterile 96-well assay plate at 10×the final concentration desired. All sample dilutions contained equal amounts of DMSO to compensate for the % DMSO in the highest sample concentration used. Nine concentrations of test compound were examined for effects on growth up to a maximal concentration of 100 μM. 10 μL of the samples and controls (DMSO/normal growth control) were added to the aliquoted cells. The cells were incubated at 37° C./5% CO2 for 48 hours. Following 48 hour incubation, 20 μL of 3H-thymidine was added to each well for a final concentration of 1 μCi/mL. The cells were then incubated at 37° C./5% CO2 for 4 to 6 hours. Following 4-6 hour thymidine pulse, plates were wrapped in plastic and frozen in a −20° C. frost-free freezer overnight. Cells were harvested and ^3H-thymidine counts determined. In order to distinguish between cytotoxicity and cytostatic activity, growth curves were prepared where the average CPM value of the seeding density of cells was plotted on the same curve as the average CPM value for the maximum proliferation attained after 48 hours (DMSO growth control cells). The cells were diluted 1:2 for a concentration range of 7.8×10^3 cells/mL to 2×10^6 cells/mL. 90 μL of each cell dilution was seeded in sterile 96-well assay plated and allowed to equilibrate for approximately 4 hours at 37° C./5% CO2 prior to ^3H-thymidine pulse. The data in Table 15 was obtained as described above, and more specifically, K562 cells were seeded into 96-well plates at 1×10^5 cells/mL in RPMI 1640 supplemented with 10% FBS/2 mM L-glutamine. Various concentrations of test compound or vehicle (DMSO) was added and the cells were incubated at 37° C./5 CO2 for 48 hours. The cells were then pulsed at 37° C./5% CO2 for 4 to 6 hours with 1 μCi/mL ^3H-thymidine. Radioactivity incorporated into DNA was determined after harvesting onto glass fiber filters and scintillation counting.

The subject of assay [4] is IL-2 production in concanavalin A stimulated primary human CD4+ T-cells. Kind of assay: IL-2 production (Th1 profile) in concanavalin A stimulated primary human CD4+ T-cells. The assay is classed as cell-based. The following applies: Homo sapiens, T-cell; 10 μg/mL Concanavalin A, 48 hours; X marks this range; read-out: IL-2 IC50 RANGE (μM) 0.2-2.0.
Text: as §1, §2, §3, §4, §5, §6, §7

The subject of assay [5] is TNF-α production in concanavalin-A stimulated primary human CD4+ T-lymphocytes. Kind of assay: TNF-α production in Con-A stimulated human CD4+ T-cells (ELISA). It counts as cell-based. The following applies: T-lymphocyte, X marks this range, read-out: TNF-alpha IC50 RANGE (μM) <2. The protocol: Activated T-lymphocytes are known to produce TNF-α and may constitute a significant source of this important inflammatory mediator in localized regions of inflammation such as the rheumatoid synovium or psoriatic lesions. Supernatants from cona-stimulated primary human CD4+ T-cells that had been incubated in the presence or absence of a test compound were analyzed for TNF-α using an ELISA system. (Pharingen; recommended anti-TNF antibody set 18631-D and 18642-D). Substantial quantities of TNF-α were induced in vehicle treated T-cells stimulated with conA. […] This may be due to the differing sensitivity of monocyte/macrophages versus T-lymphocytes to elevations in intracellular cAMP with respect to regulatory pathways impacting TNF-α production.
as §2, §3, §4, §5, §6

In assay [6] the test system is TNBS-induced colitis in the rat. The note with it: dose reduced to 50 mg/kg; cited from earlier work.
Assay [7] shares this test system. The assay can be described thus: TNBS-induced colitis model of inflammatory bowel disease in the rat.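 Note: rat colitis induced by intracolonic TNBS in 50% ethanol, distal colon assessed at sacrifice on day 7, with saline-instilled vehicle-treated rats as controls.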
Protocol: Colitis was induced by intracolonic instillation of the hapten TNBS (60 mg/mL) in 0.5 mL of 50% ethanol. […] An additional group of rats received saline intracolonically in place of TNBS/ethanol and was treated with vehicle at the same times as outlined above. Body weights were recorded at the beginning of the study and at days 2 and 7.
The rats were sacrificed on the 7th day after the induction of colitis and the extent of damage and inflammation was assessed. After the rats were sacrificed, the distal colon was removed and pinned out on a wax platform. The presence or absence of diarrhea was noted, as well as the presence and severity of adhesions between the colon and other organs, and the severity and extent of colonic damage. […] After scoring, a sample of colonic tissue was excised for measurement of myeloperoxidase activity as an index of granulocyte infiltration (see Wallace et al., Gastroenterology 117: in press, 1999; and Morris et al., Gastroenterology 96:795-803, 1989). This tissue sample was 1 cm long (along the axis of the colon) and 5 mm wide and was taken from a region of macroscopically visible damage (or the corresponding region in any rats in which there was no damage). The remainder of the tissue was fixed in neutral buffered formalin and processed by routine methods for subsequent evaluation by light microscopy. In a blinded manner, the sample of colonic tissue from each rat was examined for evidence of mucosal ulceration and inflammation. The percentage of the luminal surface of the section in which ulceration was present was calculated.
For assay [8], the system named is High Affinity Rolipram Binding Site of PDE4 in Mouse Brain. The note with it: values reported for second-generation PDE4 inhibitors; cited from earlier work.
The test system is the same in assay [9]. The assay can be described thus: Displacement of [3H]-rolipram from its high affinity binding site (HARBS). The note with it: ratio of IC50 for PDE4 catalytic activity to concentration displacing 50% of rolipram from HARBS.
[10] abbreviates: 100 mg/kg intracolonically at 12 h intervals for one week.
Where [11] appears, read: 100 mg/kg intracolonically at 12 h intervals for one week, day 7.

Take `COc1cc(-c2ccc(=O)[nH]n2)ccc1OC(F)F` [Zardaverine, reference compound]: the IC50 in assay [1] is 0.02 to 0.2 µM; in assay [2], 0.2 to 2 µM; in assay [3] (Homo sapiens, K562, 48 hours, 3H-thymidine, X marks this range, read-out: IC50 range (μM) >50) it was > 50 µM; in [4], 0.2 to 2 µM; in [5], < 2 µM.
Take `Nc1ccc(O)c(C(=O)OCCCCO[N+](=O)[O-])c1` [NCX-456]: the “therapeutic effects in TNBS model at reduced dose” value in [6] is given as “lost”. In assay [7] (setting [10]), the “Body Weight Change (%)” value was −5.7 ± 0.3% and the Mortality is reported as 1/8. Further, in assay [7] (setting [11]), the “Adhesion (Incidence)” value is recorded as “(2/7)^ζ”, the “Adhesion Score” value stood at 0.4 ± 0.3, the “Bowel Thickness (mm)” value was determined as 2.02 ± 0.42 mm and the “Damage Score” value amounted to 3.7 ± 0.9. Besides, the “Global Colitis Score” value in assay [7] (setting [11]) is 6.60 ± 1.67. In assay [7] (100 mg/kg, one week), the “reduction in the colonic damage score” value is reported as 50%. Moreover, in assay [7] (colonic tissue, 100 mg/kg intracolonically at 12 h intervals for one week, day 7), the “MPO Activity (U/mg)” value is given as 57.8 ± 11.6 U/mg. In addition, in assay [7] (incidence, 100 mg/kg intracolonically at 12 h intervals for one week, day 7), the Diarrhea is given as 3/7. The “Histology Score” value in [7] (percentage of luminal surface ulcerated, 100 mg/kg intracolonically for one week, day 7) turned out to be 46.4 ± 4.1.
For the compound `COc1ccc([C@]2(C#N)CC[C@@H](C(=O)O)CC2)cc1OC1CCCC1` [SB 207499], the “ratio of IC50's for PDE4catalytic to PDE4HARBS (reported)” value in [8] is listed as 1.
For `COc1ccc([C@H]2COC(=O)C(Cc3ccc(O)c(O)c3)C2)cc1OC1CCCC1` (stereo partly drawn) [Compound 179], in assay [9], the “PDE4:HARBS” value is on record as <1. The “effect on proliferative ability / cell cycle of K-562 cells” value in [3] is given as “cell cycle arrest”.
As for `COc1ccc(C(=O)Nc2c(Cl)cncc2Cl)cc1OC1CCCC1` [RP 73401], in assay [8], the “ratio of IC50's for PDE4catalytic to PDE4HARBS (reported)” value is on record as 3.
